Reference: patent publication US20260297092A1, “PYRAZOLOPYRIMIDINE DERIVATIVES AS INHIBITORS OF NLRP3” (Takeda Pharmaceutical Company Limited, priority 2023, published 2026)

Tests used:
[1] = tested on: TNF-α (NF-κB pathway, THP-1 cells); assay: TNF-α Assay (IC50); type: cell-based, human; settings: Homo sapiens, 600 ng/mL LPS, 3 hours
Protocol: TNF-α Assay (Reported as IC50)
Monocytic THP-1 cells (ATCC: TIB-202) were maintained in accordance with the provider's instructions in RPMI media (Life Technologies, Cat #A10491-01); RPMI was supplemented with 10% heat inactivated fetal bovine serum (Hyclone Cat #SH30396.03). The cells were differentiated into macrophages by the addition of 25 ng/mL IFN-7 for 24 hours at 37° C./5% CO2. Media was exchanged with fresh media with no FBS. The cells were plated at 40,000 cells per well in 384-well flat-bottom cell culture plates (Costar 3764) containing compounds (added in 1:1000) in a 1:3.16 serial dilution series in DMSO and were incubated for 30 minutes at 37° C./5% CO2. The NF-κB pathway was activated with the addition of 600 ng/mL LPS and the cells were incubated for 3 hours at 37° C./5% CO2. At the end of the incubation period, supernatant ([…]) was removed, and TNF-alpha were monitored using an ELISA (Human TNF-α ELISA, R&D systems, Cat #DY210) according to the manufacturer's instructions. 100% inhibition is determined with positive control, TPCA-1.
The IC50 values in the TNF-α assay were calculated from a plot of percentage of inhibition versus the inhibitor concentration by a logistics curve fit according to: Y=[Bottom+(Top−Bottom)]/(1+10^[(Log IC50−X)·Hill Slope], where Y was the […] at the inhibitor concentration, X, “Bottom” was the lowest inhibition value, i.e., 0%, “Top” was the maximum inhibition value, i.e., 100%, and the “Hill Slope” described the slope of the sigmoidal curve between the “Bottom” and “Top” values. The curve fitting was conducted with internally developed software.

[2] = tested on: NLRP3 inflammasome (IL-1β production in THP-1 cells); assay: IL-1β TR-FRET Assay (percentage of inhibition at 300 nM, 6 μM or 10 μM); type: cell-based, human; settings: Homo sapiens, LPS priming, ATP activation; for inhibition at 0.3 µM: THP-1, 300 nM, read-out: IL-1β inhibitory rate at 300 nM (%); for inhibition at 6 µM: THP-1, 6 μM, read-out: IL-1β inhibitory rate at 6 μM (%)
Protocol: The biological activity of the compound of Formula 1 with respect to NLRP3 was determined using the following in vitro method.
IL-1β TR-FRET Assay (reported as percentage of inhibition at 300 nM, 6 μM or 10 μM)
Monocytic THP-1 cells (ATCC: TIB-202) were maintained in accordance with the provider's instructions in RPMI media (Life Technologies, Cat #A10491-01); RPMI was supplemented with 10% heat inactivated fetal bovine serum (Corning, Cat #35-010-CV). The cells were differentiated into macrophages by the addition of 25 ng/mL IFN-γ (PeproTech, Cat #AF-300-02-100UG) for 24 hours at 37° C./5% CO2. Media was exchanged with fresh media with no FBS, and the cells were treated with 50 ng/mL LPS (priming step) (LPS-EK: Invivogen, Cat #tlrl-peklps). The cells were plated at 20,000 cells per well in 384-well flat-bottom cell culture plates (FALCON, Cat #353962) and were incubated for 24 hours at 37° C./5% CO2. Compounds were serially diluted (half log or 5-fold dilutions) with DMSO and were finally diluted with Media with no FBS. The compounds were added to the cells in 384-well plates (added in 1:3) and then the plates were incubated for 30 minutes at 37° C./5% CO2. The NLRP3 inflammasome was activated with the addition of 20 mM ATP (Sigma Cat #A3377-25G) and the cells were incubated for 2 hours at 37° C./5% CO2. At the end of the incubation period, 30 μL supernatant was transferred to another 384-well plate and mixed on a plate shaker for 1 minute. The supernatant was mixed with HTRF Antibody (Human IL1 beta kit, Cisbio, 62HIL1BPEH) in assay plates (Greiner Bio-One, Cat #784075) and the assay plates were incubated in shading box at room temperature for 16-24 hours. HTRF signal was measured by EnVision (Perkinelmer) in accordance with the manufacturer's instructions.
The percentage of inhibition at 300 nM, 6 μM or 10 μM in the IL-1βTR-FRET assay was calculated by the following formula: Percentage of inhibition=[1−(HTRF signaltest−HTRF signalLow)/(HTRF signalHigh−HTRF signalLow)]*100, where HTRF signaltest is the HTRF signal in the well to which test compound is added, HTRF signalLow is the HTRF signal in the well to which 3 μM MCC-950 is added, and the HTRF signalHigh is the HTRF signal in the well to which DMSO is added.

CCOc1nc2nn(-c3ccc(C)cc3O)c(C)c2c(=O)[nH]1 [Example 127, 6-ethoxy-2-(2-hydroxy-4-methylphenyl)-3-methyl-2,5-dihydro-4H-pyrazolo[3,4-d]pyrimidin-4-one]
IC50 [1]: > 30 µM
inhibition at 0.3 µM [2]: 98%

Cc1cc(C)c(-n2cc3c(=O)[nH]c(-c4ccn(C)n4)nc3n2)c(O)c1 [Example 23, 2-(2-hydroxy-4,6-dimethylphenyl)-6-(1-methyl-1H-pyrazol-3-yl)-2,5-dihydro-4H-pyrazolo[3,4-d]pyrimidin-4-one]
IC50 [1]: > 30 µM
inhibition at 0.3 µM [2]: 100%

CCOc1nc2nn(-c3ccc(C)cc3OC(F)F)cc2c(=O)[nH]1 [Example 83, 2-[2-(difluoromethoxy)-4-methylphenyl]-6-ethoxy-2,5-dihydro-4H-pyrazolo[3,4-d]pyrimidin-4-one]
IC50 [1]: > 30 µM
inhibition at 0.3 µM [2]: 99%

Cc1cc(-c2nc3nn(-c4c(C)cc(C5CC5)cc4C)cc3c(=O)[nH]2)no1 [Example 274, 2-(4-cyclopropyl-2,6-dimethylphenyl)-6-(5-methyl-1,2-oxazol-3-yl)-2,5-dihydro-4H-pyrazolo[3,4-d]pyrimidin-4-one]
IC50 [1]: > 30 µM
inhibition at 6 µM [2]: 102%

Cc1nccc(-c2nc3nn(-c4c(C)cc(C5CC5)cc4C)cc3c(=O)[nH]2)n1 [Example 287, 2-(4-cyclopropyl-2,6-dimethylphenyl)-6-(2-methylpyrimidin-4-yl)-2,5-dihydro-4H-pyrazolo[3,4-d]pyrimidin-4-one]
IC50 [1]: > 30 µM
inhibition at 6 µM [2]: 99%

COc1nc2nn(-c3c(F)cc(C4CC4)cc3CC(F)F)cc2c(=O)[nH]1 [Example 309, 2-[4-cyclopropyl-2-(2,2-difluoroethyl)-6-fluorophenyl]-6-methoxy-2,5-dihydro-4H-pyrazolo [3,4-d]pyrimidin-4-one]
inhibition at 6 µM [2]: 99%

Cc1cc(C2CC2)cc(C)c1-n1cc2c(=O)[nH]c([C@]3(F)CCOC3)nc2n1 [Example 290, 2-(4-cyclopropyl-2,6-dimethylphenyl)-6-[(3S)-3-fluorooxolan-3-yl]-2,5-dihydro-4H-pyrazolo[3,4-d]pyrimidin-4-one or 2-(4-cyclopropyl-2,6-dimethylphenyl)-6-[(3R)-3-fluorooxolan-3-yl]-2,5-dihydro-4H-pyrazolo[3,4-d]pyrimidin-4-one]
inhibition at 6 µM [2]: 99%

Cc1cc(Br)cc(C)c1-n1cc2c(=O)[nH]c([C@H]3CC3(F)F)nc2n1 [Example 189, 2-(4-bromo-2,6-dimethylphenyl)-6-(2,2-difluorocyclopropyl)-2,5-dihydro-4H-pyrazolo[3,4-d]pyrimidin-4-one]
inhibition at 0.3 µM [2]: 99%

CCOc1nc2nn(-c3c(F)cc(C4CC4)cc3C(O)C(F)F)cc2c(=O)[nH]1 (racemic) [Example 177, 2-[4-cyclopropyl-2-(2,2-difluoro-1-hydroxyethyl)-6-fluorophenyl]-6-ethoxy-2,5-dihydro-4H-pyrazolo[3,4-d]pyrimidin-4-one]
inhibition at 0.3 µM [2]: 108%

CCOc1nc2nn(-c3c(C#N)cc(C4CC4)cc3C(F)F)cc2c(=O)[nH]1 [Example 254, 5-cyclopropyl-3-(difluoromethyl)-2-(6-ethoxy-4-oxo-4,5-dihydro-2H-pyrazolo[3,4-d]pyrimidin-2-yl)benzonitrile]
inhibition at 6 µM [2]: 100%

Cc1nc2nn(-c3c(C)cc(C4CC4)cc3C)cc2c(=O)[nH]1 [Example 180, 2-(4-cyclopropyl-2,6-dimethylphenyl)-6-methyl-2,5-dihydro-4H-pyrazolo[3,4-d]pyrimidin-4-one]
inhibition at 0.3 µM [2]: 99%

Cc1cc(Br)cc(C(F)F)c1-n1cc2c(=O)[nH]c(COC(F)F)nc2n1 [Example 279, 2-[4-bromo-2-(difluoromethyl)-6-methylphenyl]-6-[(difluoromethoxy)methyl]-2,5-dihydro-4H-pyrazolo[3,4-d]pyrimidin-4-one]
inhibition at 6 µM [2]: 100%

Cc1cc(C2CC2)cc(C)c1-n1cc2c(=O)[nH]c(C3=CCOCC3)nc2n1 [Example 307, 2-(4-cyclopropyl-2,6-dimethylphenyl)-6-(3,6-dihydro-2H-pyran-4-yl)-2,5-dihydro-4H-pyrazolo[3,4-d]pyrimidin-4-one]
inhibition at 6 µM [2]: 108%

Cc1cc(C2CC2)cc(C)c1-n1cc2c(=O)[nH]c(-c3cn4c(n3)COCC4)nc2n1 [Example 264, 2-(4-cyclopropyl-2,6-dimethylphenyl)-6-(5,6-dihydro-8H-imidazo[2,1-c][1,4]oxazin-2-yl)-2,5-dihydro-4H-pyrazolo[3,4-d]pyrimidin-4-one]
inhibition at 6 µM [2]: 100%

CCOc1nc2nn(-c3c(C)cc(C)cc3F)cc2c(=O)[nH]1 [Example 78, 6-ethoxy-2-(2-fluoro-4,6-dimethylphenyl)-2,5-dihydro-4H-pyrazolo[3,4-d]pyrimidin-4-one]
inhibition at 0.3 µM [2]: 98%

Cc1cc(C2CC2)cc(C)c1-n1cc2c(=O)[nH]c(COCC(F)F)nc2n1 [Example 212, 2-(4-cyclopropyl-2,6-dimethylphenyl)-6-[(2,2-difluoroethoxy)methyl]-2,5-dihydro-4H-pyrazolo[3,4-d]pyrimidin-4-one]
inhibition at 0.3 µM [2]: 103%

CCOc1nc2nn(-c3c(F)cc(C4(F)CC4)cc3Br)cc2c(=O)[nH]1 [Example 178, 2-[2-bromo-6-fluoro-4-(1-fluorocyclopropyl)phenyl]-6-ethoxy-2,5-dihydro-4H-pyrazolo[3,4-d]pyrimidin-4-one]
inhibition at 0.3 µM [2]: 101%

Cc1cc(C2CC2)cc(C)c1-n1cc2c(=O)[nH]c(CO)nc2n1 [Example 304, 2-(4-cyclopropyl-2,6-dimethylphenyl)-6-(hydroxymethyl)-2,5-dihydro-4H-pyrazolo[3,4-d]pyrimidin-4-one]
inhibition at 6 µM [2]: 103%

Cc1cc(C2CC2)cc(C(F)F)c1-n1cc2c(=O)[nH]c([C@@H]3COCCO3)nc2n1 [Example 326, 2-[4-cyclopropyl-2-(difluoromethyl)-6-methylphenyl]-6-[(2S)-1,4-dioxan-2-yl]-2,5-dihydro-4H-pyrazolo[3,4-d]pyrimidin-4-one or 2-[4-cyclopropyl-2-(difluoromethyl)-6-methylphenyl]-6-[(2R)-1,4-dioxan-2-yl]-2,5-dihydro-4H-pyrazolo[3,4-d]pyrimidin-4-one]
inhibition at 10 µM ([2]; THP-1, 10 μM, read-out: IL-1β inhibitory rate at 10 μM (%)): 111%

CCOc1nc2nn(-c3c(C)cc(Br)cc3OC(F)F)cc2c(=O)[nH]1 [Example 221, 2-[4-bromo-2-(difluoromethoxy)-6-methylphenyl]-6-ethoxy-2,5-dihydro-4H-pyrazolo[3,4-d]pyrimidin-4-one]
inhibition at 0.3 µM [2]: 99%

COCCOc1nc2nn(-c3c(C)cc(C4CC4)cc3OC(F)F)cc2c(=O)[nH]1 [Example 225, 2-[4-cyclopropyl-2-(difluoromethoxy)-6-methylphenyl]-6-(2-methoxyethoxy)-2,5-dihydro-4H-pyrazolo[3,4-d]pyrimidin-4-one]
inhibition at 0.3 µM [2]: 100%

Cc1cc(C2CC2)cc(C)c1-n1cc2c(=O)[nH]c([C@@H]3CCOC3)nc2n1 [Example 201, 2-(4-cyclopropyl-2,6-dimethylphenyl)-6-(oxolan-3-yl)-2,5-dihydro-4H-pyrazolo [3,4-d]pyrimidin-4-one]
inhibition at 0.3 µM [2]: 99%
